Literature values in patent US20180035685A1, “ANTIMICROBIAL COMPOSITIONS” (priority 2015, published 2018).

What was measured:
[1] = stored in cold; applied at 300 ppm
[2] = test system: Listeria; details: pure form; Mandalari et al. (2007)

SMILES | Antimicrobial effect on raw beef MAP meat [1] | Effect on Listerial growth in vitro [2]
O=c1oc2c(O)c(O)cc3c(=O)oc4c(O)c(O)cc1c4c23 [ellagic acid] | no antimicrobial effect | –
COc1ccc([C@@H]2CC(=O)c3c(O)cc(O[C@@H]4O[C@H](CO)[C@@H](O)[C@H](O)[C@H]4O[C@@H]4O[C@@H](C)[C@H](O)[C@@H](O)[C@H]4O)cc3O2)cc1O [neohesperidin] | – | no effect on Listerial growth
